# Assay results reported in patent US20120077732A1, “CYCLIC PEPTIDES AND USES THEREOF” (SYDNEY WEST AREA HEALTH SERVICE, priority 2008, published 2012).
# Where two headings read alike, the source gives them in different places. No end group written: not given here.
# How the values were obtained:
# E. coli = assay: Standard disk susceptibility testing (NCCLS), E. coli; type: cell-based
# Method: (§1) The synthetic C1 peptide and its analogues were tested using Standard disk susceptibility testing by National Committee for […] Laboratory Standards (NCCLS) against, S. aureus, E. coli and S. pneumoniae. […]
# S. aureus = type: cell-based
# Method: as §1
# S. pneumoniae = assay: Standard disk susceptibility testing (NCCLS), S. pneumoniae; type: cell-based
# Method: as §1
# allergic mice (OVA/OVA) [1] = assay: Allergic airways disease (OVA) model: inflammatory cells in BALF; type: in vivo; set-up: key to Airway lymphocytes / Airway eosinophils / Airway macrophages / Airway inflammatory cells / Airway neutrophils: nc: no change; ↑: increase; ↓: decrease; conditions: for Airway eosinophils / Airway inflammatory cells / Airway lymphocytes / Airway macrophages / Airway neutrophils: 200 μg/100 μl s.c. during OVA challenge, compared to OVA/OVA alone
# allergic mice (OVA/OVA) [2] = assay: Allergic airways disease (OVA) model: local and systemic OVA-specific cytokine production; type: in vivo; set-up: key to Spleen OVA-stimulated IL-5 / Spleen OVA-stimulated IL-13 / LN OVA-stimulated IL-5 / LNOVA stimulated IL-13: nc: no change; ↑: increase; ↓: decrease; conditions: for LN OVA-stimulated IL-5 / LNOVA stimulated IL-13 / Spleen OVA-stimulated IL-5 / Spleen OVA-stimulated IL-13: 200 μg/100 μl s.c. during OVA challenge, compared to OVA/OVA alone
# allergic mice (OVA/OVA) [3] = assay: Allergic airways disease (OVA) model: airways hyperreactivity to methacholine; type: in vivo; set-up: key to Airway Resistance / Airway Compliance: nc: no change; ↑: increase; ↓: decrease; conditions: for Airway Compliance / Airway Resistance: 200 μg/100 μl s.c. during OVA challenge, compared to OVA/OVA alone
# trypsin = type: in vitro ADME
# Method: The effect of trypsin on C1 and CP was studied by incubating each peptide (1 μg/μl) in methanol and ammonium bicarbonate (0.1M) with 125 ng/μl of trypsin at pH 8 and 37° C. The effect of trypsin after incubation with CP and C1 was followed by mass spectrometry. […]
# 2B4.11 hybridoma = assay: Antigen presentation assay (IL-2 produced in response to antigen); type: cell-based; conditions: for % Ave IL2 Production: average, Tables 1-3; for IL2 %: 50 μM, relative to DMSO control (100%); for IL-2 production, % of the solvent only control value: 0.5% DMSO, ±SD
# [4] = Surface plasmon resonance binding to DMPC liposomes; conditions: SPR, L1 sensor chip, 50 μM, 25° C.
# Method: (§2) Model membranes composed of zwitterionic and anionic phospholipids were prepared as previously described (Bender et al., 2004). Briefly, DMPC and DMPG were dissolved in dry chloroform and chloroform/methanol (2:1) respectively to give 10 mg/ml solutions. […] The solution was sonicated in an ultrasonic bath for 20 min. Eight cycles of freeze/thawing was followed by extrusion through polycarbonate filters, first 100 nm (21 times) then 50 nm pore diameter (21 times), using a Lipofast apparatus (Avestin, Ottawa, Canada) and SUVs were used immediately. SPR was carried out on a BIAcore 2000 instrument using Pioneer Sensor Chip L1 and HEPES (HBS-N, Biacore, Upssala, Sweden) as running buffer. The chip surface was cleaned with 40 mM octyl glycoside (30 μl, 10 μl/min) followed liposomes (SUV) (100 μl, 5 μl/min). 10 mM NaOH (40 μl, 10 μl/min) removed any multilamellar vesicles from the surface before injecting the lipopeptide solutions (100 μl, 5 μl/min). The dissociation stage was 1200 sec. […] All SPR experiments were run at 25° C. and all analyses were performed using the BIAevaluation software (Biacore, Uppsala, Sweden). Lipopeptide binding was expressed as the difference in signal between points before sample injection and after dissociation.
# [5] = Surface plasmon resonance binding to DMPG liposomes; conditions: for binding to DMPG (anionic) liposomes: SPR, L1 sensor chip, 50 μM, 25° C.
# Method: as §2
# [6] = second IL2 column (individual experiment in triplicate)
# [7] = third IL2 column (individual experiment in triplicate)
# [8] = first IL2 column (individual experiment in triplicate)
# [9] = fifth IL2 column (individual experiment in triplicate)
# [10] = fourth IL2 column (individual experiment in triplicate)
# [11] = 200 μg s.c. during challenge, allergic mice
compound,measurement,setting,value
"CO/N=C(\C(=O)N[C@@H]1C(=O)N2C(C(=O)O)=C(COC(C)=O)CS[C@H]12)c1csc(N)n1 [Ceforaxime, reference compound]","antimicrobial activity, E. coli",E. coli; 30 μg/ml,+ve
same,"antimicrobial activity, S. aureus",S. aureus; 30 μg/ml,−ve
same,"antimicrobial activity, S. pneumoniae",S. pneumoniae; 30 μg/ml,−ve
"Cc1onc(-c2ccccc2)c1C(=O)N[C@@H]1C(=O)N2[C@@H]1SC(C)(C)[C@@H]2C(=O)O [Oxacillin, reference compound]","antimicrobial activity, E. coli",E. coli; 1 μg/ml,−ve
same,"antimicrobial activity, S. aureus",S. aureus; 1 μg/ml,+ve
same,"antimicrobial activity, S. pneumoniae",S. pneumoniae; 1 μg/ml,+ve
"C[C@H]1C[C@@H]2[C@H]([C@@H](O)C[C@@]3(C)[C@H]2CC[C@]3(O)C(=O)CO)[C@@]2(C)C=CC(=O)C=C12 [methylprednisolone, reference compound]",Airway eosinophils,allergic mice (OVA/OVA) [1],↓
same,Airway inflammatory cells,allergic mice (OVA/OVA) [1],↓
same,Airway lymphocytes,allergic mice (OVA/OVA) [1],nc
same,Airway macrophages,allergic mice (OVA/OVA) [1],↓
same,Airway neutrophils,allergic mice (OVA/OVA) [1],↓
same,LN OVA-stimulated IL-5,allergic mice (OVA/OVA) [2],nc
same,LNOVA stimulated IL-13,allergic mice (OVA/OVA) [2],nc
same,Spleen OVA-stimulated IL-5,allergic mice (OVA/OVA) [2],↓
same,Spleen OVA-stimulated IL-13,allergic mice (OVA/OVA) [2],↓
same,Airway Compliance,allergic mice (OVA/OVA) [3],↑
same,Airway Resistance,allergic mice (OVA/OVA) [3],↓
"GLRILLLKV [CP, GLRILLLKV, reference compound]","stability without trypsin, 3 hours (Mass spectroscopy-MS)",trypsin,No degradation product
same,"stability without trypsin, 24 hours (MS)",trypsin,No degradation product
LDKLDKKDKLDKVDG (cyclo(LDKLDKKDKLDKVDG); ring closure inferred; not fully specified) [C11],% Ave IL2 Production,2B4.11 hybridoma,96%
same,IL2 %,2B4.11 hybridoma; [6],88.5%
same,IL2 %,2B4.11 hybridoma; [7],104%
LDKLDKLDKLDKVDG [C2],binding to DMPC (zwitterionic) liposomes,[4],only very limited binding
same,"antimicrobial activity, E. coli",E. coli; peptide 10 μg/ml,−ve
same,"antimicrobial activity, E. coli",E. coli; peptide 100 μg/ml,−ve
same,"antimicrobial activity, E. coli",E. coli; peptide 1000 μg/ml,−ve
same,"antimicrobial activity, S. aureus",S. aureus; peptide 10 μg/ml,−ve
same,"antimicrobial activity, S. aureus",S. aureus; peptide 100 μg/ml,−ve
same,"antimicrobial activity, S. aureus",S. aureus; peptide 1000 μg/ml,−ve
same,binding to the anionic liposome,[5]; SPR sensorgram,3000 RU
same,"antimicrobial activity, S. pneumoniae",S. pneumoniae; peptide 10 μg/ml,−ve
same,"antimicrobial activity, S. pneumoniae",S. pneumoniae; peptide 100 μg/ml,−ve
same,"antimicrobial activity, S. pneumoniae",S. pneumoniae; peptide 1000 μg/ml,−ve
same,% Ave IL2 Production,2B4.11 hybridoma,22%
same,"IL-2 production, % of the solvent only control value",2B4.11 hybridoma; peptide 25 μM,58.74%±7.63
same,"IL-2 production, % of the solvent only control value",2B4.11 hybridoma; peptide 50 μM,24.51%±8.81
LDKLDLLDLLDKVDG (cyclo(LDKLDLLDLLDKVDG); ring closure inferred; not fully specified) [C5],% Ave IL2 Production,2B4.11 hybridoma,78%
same,IL2 %,2B4.11 hybridoma; [8],73.6%
same,IL2 %,2B4.11 hybridoma; [6],75%
same,IL2 %,2B4.11 hybridoma; [7],85.4%
LDLLDLLDRLDKVDG (cyclo(LDLLDLLDRLDKVDG); ring closure inferred; not fully specified) [C8],% Ave IL2 Production,2B4.11 hybridoma,33%
same,IL2 %,2B4.11 hybridoma; [9],17.4%
same,IL2 %,2B4.11 hybridoma; [10],20.2%
same,IL2 %,2B4.11 hybridoma; [6],35%
same,IL2 %,2B4.11 hybridoma; [7],(61.2) %
LDLLDRLDLLDKVDG (cyclo(LDLLDRLDLLDKVDG); ring closure inferred; not fully specified) [C6],% Ave IL2 Production,2B4.11 hybridoma,99%
same,IL2 %,2B4.11 hybridoma; [8],104.5%
same,IL2 %,2B4.11 hybridoma; [6],104%
same,IL2 %,2B4.11 hybridoma; [7],89%
LDRLDKKDKLDKVDG (cyclo(LDRLDKKDKLDKVDG); ring closure inferred; not fully specified) [C12],% Ave IL2 Production,2B4.11 hybridoma,27%
same,IL2 %,2B4.11 hybridoma; [9],24%
same,IL2 %,2B4.11 hybridoma; [8],9.0%
same,IL2 %,2B4.11 hybridoma; [10],33.7%
same,IL2 %,2B4.11 hybridoma; [6],21%
same,IL2 %,2B4.11 hybridoma; [7],(49) %
LDRLDKLDKLDKVDG (cyclo(LDRLDKLDKLDKVDG); ring closure inferred; not fully specified) [C10],% Ave IL2 Production,2B4.11 hybridoma,59%
same,IL2 %,2B4.11 hybridoma; [9],64.1%
same,IL2 %,2B4.11 hybridoma; [10],54%
LDRLDKLDLLDKVDG (cyclo(LDRLDKLDLLDKVDG); ring closure inferred; not fully specified) [C9],% Ave IL2 Production,2B4.11 hybridoma,25%
same,IL2 %,2B4.11 hybridoma; [9],16.9%
same,IL2 %,2B4.11 hybridoma; [10],6.75%
same,IL2 %,2B4.11 hybridoma; [6],11.5%
same,IL2 %,2B4.11 hybridoma; [7],(65.3) %
LDRLDKVDG (cyclo(LDRLDKVDG); ring closure inferred; not fully specified) [6AA],% Ave IL2 Production,2B4.11 hybridoma,35%
same,IL2 %,2B4.11 hybridoma; [9],44.3%
same,IL2 %,2B4.11 hybridoma; [8],9.0%
same,IL2 %,2B4.11 hybridoma; [10],33.7%
same,IL2 %,2B4.11 hybridoma; [6],36.5%
same,IL2 %,2B4.11 hybridoma; [7],(52) %
"LDRLDLLDKLDKVDG (cyclo(LDRLDLLDKLDKVDG); ring closure inferred; not fully specified) [C3, cyclic peptide 3]",binding to DMPC (zwitterionic) liposomes,[4],no binding at all
same,"antimicrobial activity, E. coli",E. coli; peptide 100 μg/ml,−ve
same,"antimicrobial activity, E. coli",E. coli; peptide 1000 μg/ml,−ve
same,"antimicrobial activity, S. aureus",S. aureus; peptide 100 μg/ml,−ve
same,"antimicrobial activity, S. aureus",S. aureus; peptide 1000 μg/ml,−ve
same,binding to DMPG (anionic) liposomes,[5],no binding at all
same,"antimicrobial activity, S. pneumoniae",S. pneumoniae; peptide 100 μg/ml,−ve
same,"antimicrobial activity, S. pneumoniae",S. pneumoniae; peptide 1000 μg/ml,−ve
same,% Ave IL2 Production,2B4.11 hybridoma,95%
same,"IL-2 production, % of the solvent only control value",2B4.11 hybridoma; peptide 50 μM,91.69%±25.86
LDRLDLLDKVDG [8AA],% Ave IL2 Production,2B4.11 hybridoma,72%
LDRLDLLDLLDKVDG [C1-L],binding to DMPC (zwitterionic) liposomes,[4],only very limited binding
same,binding to DMPG (anionic) liposomes,[5],only very limited binding
same,eosinophils in BALF,allergic mice (OVA/OVA) [1]; [11],decrease
same,total inflammatory cell counts in bronchoalveolar lavage fluid (BALF),allergic mice (OVA/OVA) [1]; [11],significantly decreased
same,Airway eosinophils,allergic mice (OVA/OVA) [1],↓
same,Airway inflammatory cells,allergic mice (OVA/OVA) [1],↓
same,Airway lymphocytes,allergic mice (OVA/OVA) [1],nc
same,Airway macrophages,allergic mice (OVA/OVA) [1],nc
same,Airway neutrophils,allergic mice (OVA/OVA) [1],nc
same,locally produced (peribronchial lymph node derived) IL-5,allergic mice (OVA/OVA) [2]; [11],no significant impact
same,locally produced (peribronchial lymph node derived) IL-13,allergic mice (OVA/OVA) [2]; [11],no significant impact
same,systemic (spleen derived) IL-5,allergic mice (OVA/OVA) [2]; [11],significantly decreased
same,systemic (spleen derived) IL-13,allergic mice (OVA/OVA) [2]; [11],no change
same,LN OVA-stimulated IL-5,allergic mice (OVA/OVA) [2],nc
same,LNOVA stimulated IL-13,allergic mice (OVA/OVA) [2],nc
same,Spleen OVA-stimulated IL-5,allergic mice (OVA/OVA) [2],↓
same,Spleen OVA-stimulated IL-13,allergic mice (OVA/OVA) [2],nc
same,airway resistance in response to methacholine challenge,allergic mice (OVA/OVA) [3]; [11],no significant effect
same,dynamic compliance in response to methacholine challenge,allergic mice (OVA/OVA) [3]; [11],no significant effect
same,Airway Compliance,allergic mice (OVA/OVA) [3],nc
same,Airway Resistance,allergic mice (OVA/OVA) [3],nc
same,% Ave IL2 Production,2B4.11 hybridoma,90%
same,"IL-2 production, % of the solvent only control value",2B4.11 hybridoma; peptide 50 μM,only minimal activity
LDRLDLLDLLDRVDG [C4],binding to DMPC (zwitterionic) liposomes,[4],no binding at all
same,"antimicrobial activity, E. coli",E. coli; peptide 10 μg/ml,−ve
same,"antimicrobial activity, E. coli",E. coli; peptide 100 μg/ml,−ve
same,"antimicrobial activity, E. coli",E. coli; peptide 1000 μg/ml,−ve
same,"antimicrobial activity, S. aureus",S. aureus; peptide 10 μg/ml,−ve
same,"antimicrobial activity, S. aureus",S. aureus; peptide 100 μg/ml,−ve
same,"antimicrobial activity, S. aureus",S. aureus; peptide 1000 μg/ml,−ve
same,binding to DMPG (anionic) liposomes,[5],no binding at all
same,"antimicrobial activity, S. pneumoniae",S. pneumoniae; peptide 10 μg/ml,−ve
same,"antimicrobial activity, S. pneumoniae",S. pneumoniae; peptide 100 μg/ml,−ve
same,"antimicrobial activity, S. pneumoniae",S. pneumoniae; peptide 1000 μg/ml,−ve
same,% Ave IL2 Production,2B4.11 hybridoma,72%
same,"IL-2 production, % of the solvent only control value",2B4.11 hybridoma; peptide 50 μM,74.54%±11.22
RDLLDLLDLLDKVDG [C7],% Ave IL2 Production,2B4.11 hybridoma,49%
same,IL2 %,2B4.11 hybridoma; [9],76.4%
same,IL2 %,2B4.11 hybridoma; [8],29%
same,IL2 %,2B4.11 hybridoma; [10],71%
same,IL2 %,2B4.11 hybridoma; [6],15.4%
same,IL2 %,2B4.11 hybridoma; [7],54%
